Reference: patent US20220273659A1, “HETEROCYCLIC COMPOUNDS AS KINASE INHIBITORS” (NUVATION BIO INC., priority 2019, published 2022)

Key:
[1] = molecular target: T1, CDK2 (cyclin A) (Homo sapiens, UniProt P24941); assay: Z'-LYTE kinase assay; format: biochemical
T1 construct: purchased Invitrogen Life Technologies (assay service)
Summary of the method: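 FRET-based Z′-LYTE read-out using 1.22–10.3 ng CDK2/cyclin A with Ser/Thr 12 peptide (2 μM in the 2× mix) and ATP (31 μM as the 4× solution), in HEPES pH 7.5, MgCl2, EGTA and BRIJ-35, for 60 min at room temperature. After 1 h of development, the 445/520 nm emission was read, and percent inhibition was fitted to a four-parameter logistic curve for IC50.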

[2] = molecular target: T2, FMS kinase (Homo sapiens, UniProt P07333); assay: LanthaScreen Eu Kinase Binding Assay (ATP, fluorescent-PolyGT substrate); format: biochemical
T2 construct: purchased Invitrogen (Life Technologies)
T2 sequence (P07333 20-972): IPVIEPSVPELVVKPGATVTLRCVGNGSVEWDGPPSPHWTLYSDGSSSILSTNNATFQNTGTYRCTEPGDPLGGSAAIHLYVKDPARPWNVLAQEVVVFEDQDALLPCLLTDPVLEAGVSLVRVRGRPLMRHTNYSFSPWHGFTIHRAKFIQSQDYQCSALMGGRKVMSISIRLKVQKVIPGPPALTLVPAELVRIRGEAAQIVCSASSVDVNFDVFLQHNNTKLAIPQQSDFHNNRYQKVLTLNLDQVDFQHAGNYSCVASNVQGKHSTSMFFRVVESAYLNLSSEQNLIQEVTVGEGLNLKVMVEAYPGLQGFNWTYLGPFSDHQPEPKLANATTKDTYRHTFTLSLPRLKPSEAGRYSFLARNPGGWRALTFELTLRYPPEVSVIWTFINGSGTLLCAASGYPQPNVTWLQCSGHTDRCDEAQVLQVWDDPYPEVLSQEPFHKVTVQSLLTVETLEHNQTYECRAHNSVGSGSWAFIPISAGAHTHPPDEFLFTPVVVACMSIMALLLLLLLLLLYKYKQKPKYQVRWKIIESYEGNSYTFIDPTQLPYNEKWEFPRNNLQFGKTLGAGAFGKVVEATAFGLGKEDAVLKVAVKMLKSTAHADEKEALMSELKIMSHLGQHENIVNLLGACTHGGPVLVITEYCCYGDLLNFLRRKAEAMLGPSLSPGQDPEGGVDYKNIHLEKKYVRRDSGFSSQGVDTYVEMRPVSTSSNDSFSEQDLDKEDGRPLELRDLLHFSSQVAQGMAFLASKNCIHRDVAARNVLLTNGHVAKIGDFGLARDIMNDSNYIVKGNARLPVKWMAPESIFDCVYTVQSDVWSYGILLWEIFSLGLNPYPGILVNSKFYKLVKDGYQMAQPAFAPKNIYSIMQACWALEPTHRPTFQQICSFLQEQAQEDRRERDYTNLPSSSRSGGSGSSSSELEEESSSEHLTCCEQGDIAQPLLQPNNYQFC
Summary of the method: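 Kinase (1.25 nM) preincubated 10 min with 3-fold compound dilutions, then ATP 10 μM and fluorescent PolyGT substrate 200 nM added for 1 h in the dark at room temperature. Stopped with Tb-antibody (4 nM) and EDTA 20 mM; TR-FRET at 340 nm excitation, 495/520 nm emission; IC50 from four-parameter fit.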

[3] = tested on: BT-549 breast ductal carcinoma cells; assay: Cancer cell proliferation assay, single agent (cell viability); format: cell-based; details: Homo sapiens, Table 4, Rb negative, treatment 24 Hr, Cell Titer-Glo or resazurin
Summary of the method: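 Cells seeded day 1, then exposed on day 2 to 7–9 compound concentrations (e.g. 1.1 nM–10 μM); BT-549 for 24 h, MCF-7 and DU4475 for 144 h with medium change at 72 h. Viability by CellTiter-Glo or resazurin; IC50 from variable-slope sigmoidal fit.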

[4] = tested on: Rb Ser780 phosphorylation in MCF-7 cells; assay: Determination of pRb levels (Ser780 phosphorylation, ELISA); format: cell-based; details: Homo sapiens; for inhibition at 0.01 µM: MCF7, 0.01 μM; for inhibition at 0.01 µM / inhibition at 0.1 µM / inhibition at 1 µM: 24H treatment, percentage of vehicle control; for inhibition at 0.1 µM: MCF7, 0.1 μM; for inhibition at 1 µM: MCF7, 1 μM
Procedure: Hypo-phosphorylation of the retinoblastoma protein (Rb) by cyclin D:Cdk4/6 complexes results in active Rb, which is a clinically relevant biomarker associated with CDK4 or CDK6 inhibition. As a confirmatory measure of functional activity of CDK4/6, the Ser780 phosphorylation state of Rb was assessed. MCF-7 cells were plated at 2.5×10^5 to 3.0×10^6 cells/well in 6-well cell-culture plates and incubated at 37° C. for 24H in MEM medium supplemented with 10% FBS. Cells were treated for 24H with a medium containing test compound at various concentrations (e.g., 0.01, 0.1, […]) or with DMSO (≤1%) in duplicate. After incubation period, the media was removed, and cells were rinsed once with ice-cold PBS and lysed with 0.2 mL of Cell Lysis Buffer containing 1 mM PMSF and Protease Inhibitor. Protein concentration was estimated following Bradford method. The lysis and the Rb measurements were performed following the manufacturer's ELISA kit protocols and buffers (Cell Signaling Technology, Cat. No.: 13016C). Rb inhibition of test compounds was calculated as percentage of vehicle control. In some cases, a nonlinear regression model with a sigmoidal dose response and variable slope within GraphPad Prism was used to calculate the IC50 value of Rb inhibition for individual test compounds.

[5] = molecular target: T3, CDK2 (cyclin E1) (Homo sapiens, UniProt P24941); assay: LanthaScreen Eu Kinase Binding Assay; details: read-out: CDK2/E IC50
T3 construct: purchased Invitrogen Life Technologies (assay service)
Procedure: 0.16 μL of 100×test compound in 100% DMSO (at specific solutions) were mixed with 3.84 μL of Kinase Buffer (50 mM HEPES pH 7.5, 0.01% BRIJ-35, 10 mM MgCl2, 1 mM EGTA), 8.0 μL of 2× Kinase (2.5 nM)/Antibody (Eu-anti-GST, 2 nM) Mixture and 4.0 μL of 4×Tracer (Tracer 236, 100 nM). The plates were shaken for 30 seconds, and incubated for 60 minutes at room temperature. The plates were read on fluorescence plate reader with Dual emission at 615 nm and 665 nm.
The following equations were used for LanthaScreen Eu Kinase Binding Assay Data Analysis. Percent inhibition (100-% activity) was fitted to the “four-parameter logistic model” in XLfit for determination of IC50 values.

Compound | IC50 [1] | IC50 [2] | IC50 [3] | IC50 [5] | IC50 ([4]; MCF7, 24H treatment, read-out: Inhibition of Rb phosphorylation IC50) | inhibition at 0.01 µM [4] | inhibition at 0.1 µM [4] | inhibition at 1 µM [4]
N#Cc1cc2cnc(Nc3ccc(N4CCNCC4)c(F)c3)nc2n(C2CCCC2)c1=O [Compound No. 13, 8-cyclopentyl-2-((3-fluoro-4-(piperazin-1-yl)phenyl)amino)-7-oxo-7,8-dihydropyrido[2,3-d]pyrimidine-6-carbonitrile] | – | < 0.001 µM | 1.4 µM | – | – | 35% | 58% | 93%
N#Cc1cc2cnc(Nc3ccc4c(c3)CNCC4)nc2n(C2CCCC2)c1=O [Compound No. 29, 8-cyclopentyl-7-oxo-2-((1,2,3,4-tetrahydroisoquinolin-7-yl)amino)-7,8-dihydropyrido[2,3-d]pyrimidine-6-carbonitrile] | 0.042 µM | 0.0025 µM | – | – | – | 12% | 27% | 44%
N#Cc1cc2cnc(Nc3ccc4c(c3)CCNC4)nc2n(C2CCCC2)c1=O [Compound No. 31, 8-cyclopentyl-7-oxo-2-((1,2,3,4-tetrahydroisoquinolin-6-yl)amino)-7,8-dihydropyrido[2,3-d]pyrimidine-6-carbonitrile] | 0.032 µM | 0.001 µM | 1.11 µM | 0.074 µM | – | 1% | 27% | 95%
N#Cc1cc2cnc(Nc3ccc4c(c3)CCNC4)nc2n(C2CC3CC3C2)c1=O (stereo not shown) [Compound No. 342, 8-(bicyclo[3.1.0]hexan-3-yl)-7-oxo-2-((1,2,3,4-tetrahydroisoquinolin-6-yl)amino)-7,8-dihydropyrido[2,3-d]pyrimidine-6-carbonitrile] | 0.041 µM | < 0.001 µM | – | – | – | – | – | –

The next lines start with results.

IC50 [1] | IC50 [2] | IC50 [3] | IC50 [5] | IC50 ([4]; MCF7, 24H treatment, read-out: Inhibition of Rb phosphorylation IC50) | Compound | inhibition at 0.01 µM [4] | inhibition at 0.1 µM [4] | inhibition at 1 µM [4]
0.03 µM | 0.674 µM | – | – | – | CS(=O)(=O)N1CCC(Nc2ncc3cc(C#N)c(=O)n(C4CCC(F)(F)C4)c3n2)CC1 (racemic) [Compound No. 345, 8-(3,3-difluorocyclopentyl)-2-((1-(methylsulfonyl)piperidin-4-yl)amino)-7-oxo-7,8-dihydropyrido[2,3-d]pyrimidine-6-carbonitrile] | – | – | –
0.0025 µM | – | – | – | < 0.123 µM | CS(=O)(=O)N1CCC(Nc2ncc3cc(C#N)c(=O)n(C4CCCC4)c3n2)CC1 [Compound No. 93, 8-cyclopentyl-2-((1-(methylsulfonyl)piperidin-4-yl)amino)-7-oxo-7,8-dihydropyrido[2,3-d]pyrimidine-6-carbonitrile] | – | – | –
0.007 µM | 0.166 µM | – | – | – | CS(=O)(=O)N1CCC(Nc2ncc3cc(C#N)c(=O)n(C4CC5CC5C4)c3n2)CC1 (stereo not shown) [Compound No. 341, 8-(bicyclo[3.1.0]hexan-3-yl)-2-((1-(methylsulfonyl)piperidin-4-yl)amino)-7-oxo-7,8-dihydropyrido[2,3-d]pyrimidine-6-carbonitrile] | – | – | –
